The values below come from patent publication US9073821B2, “Hydroxamic acid derivative” (priority 2010, dated 2015).

In the first assay the target is Pseudomonas aeruginosa LpxC enzyme (Pseudomonas aeruginosa (strain ATCC 15692 / DSM 22644 / CIP 104116 / JCM 14847 / LMG 12228 / 1C / PRS 101 / PAO1), UniProt P47205). The experiment in a line: biochemical. Format: biochemical. To be noted: class symbols A/B/C by IC50; Table 3; read-out: Enzyme inhibitory activity (inhibitory activity on Pseudomonas aeruginosa LpxC enzyme).
Regarding `CNC(=O)C(C(=O)NO)N(C)C(=O)c1ccc(C#Cc2cnn(CCOC)c2)cc1` (centres unmarked) [Compound 518, N-hydroxy-2-{[(4-{[1-(2-methoxyethyl)-1H-pyrazol-4-yl]ethynyl}phenyl)carbonyl](methyl)amino}-N′-methylpropanediamide], the IC50 was in the range of 10 to 100 nM.
The same measure, in the same setting: as for `CNC(=O)[C@@](C)(C(=O)NO)N(C)C(=O)c1ccc(C#Cc2coc(CO)c2)cc1` [Compound 616, (2S)-N-hydroxy-2-[(4-{[5-(hydroxymethyl)furan-3-yl]ethynyl}benzoyl)(methyl)amino]-N′,2-dimethylpropanediamide], the figure is less than 10 nM.

The same assay, now with this note: inhibitory activity on Pseudomonas aeruginosa LpxC enzyme, class symbols A/B/C; read-out: Enzyme inhibitory activity.
For `CNC(=O)C(C(=O)NO)N(C)C(=O)c1ccc(C#Cc2ccc(OCCCN3CCOCC3)cc2)cc1` (centres unmarked) [Compound 465, N-hydroxy-N′-methyl-2-(methyl {[4-({4-[3-(morpholin-4-yl)propoxy]phenyl}ethynyl)phenyl]carbonyl}amino)propanediamide], the IC50 is less than 10 nM.
Still for that read-out and setting: as for `O=C(NC(C(=O)NO)C(=O)NCCOc1ccccc1)c1ccc(-c2ccc(OCCO)cc2)cc1` (centres unmarked) [Compound 138, N-hydroxy-2-({[4′-(2-hydroxyethoxy)biphenyl-4-yl]carbonyl}amino)-N′-(2-phenoxyethyl)propanediamide], the figure is less than 10 nM.
Still for that read-out and setting: the result for `CNC(=O)C(C(=O)NO)N(C)C(=O)c1ccc(C#Cc2ccc(C(C)N)cc2)cc1` (centres unmarked) [Compound 358, 2-{[(4-{[4-(1-aminoethyl)phenyl]ethynyl}phenyl)carbonyl](methyl)amino}-N-hydroxy-N′-methylpropanediamide] reads 10 to 100 nM.
Still for that read-out and setting: as for `CCCNc1ccc(-c2ccc(C(=O)N(C)C(C(=O)NC)C(=O)NO)cc2)cc1` (centres unmarked) [Compound 245, N-hydroxy-N′-methyl-2-(methyl {[4′-(propylamino)biphenyl-4-yl]carbonyl}amino)propanediamide], the figure is less than 10 nM; as for `CNC(=O)C(C(=O)NO)N(C)C(=O)c1ccc(-c2ccc(Cl)c(Cl)c2)cc1` (centres unmarked) [Compound 224, 2-{[(3′,4′-dichlorobiphenyl-4-yl)carbonyl](methyl)amino}-N-hydroxy-N′-methylpropanediamide], less than 10 nM.
Consider `CNC(=O)C(C(=O)NO)N(C)C(=O)c1ccc(-c2ccc(SC)cc2)cc1` (centres unmarked) [Compound 42, N-hydroxy-N′-methyl-2-(methyl {[4′-(methylsulfanyl)biphenyl-4-yl]carbonyl}amino)propanediamide], for which the IC50 was less than 10 nM.
Still for that read-out and setting: the result for `CNC(=O)C(C(=O)NO)N(C)C(=O)c1ccc(C#Cc2ccc(CN(C)C3CCCCC3)cc2)cc1` (centres unmarked) [Compound 327, 2-[({4-[(4-{[cyclohexyl(methyl)amino]methyl}phenyl)ethynyl]phenyl}carbonyl)(methyl)amino]-N-hydroxy-N′-methylpropanediamide] reads 10 to 100 nM.
Same read-out and setting: the result for `Cn1ccc(CNC(=O)C(NC(=O)c2ccc(-c3ccc(OCCO)cc3)cc2)C(=O)NO)n1` (centres unmarked) [Compound 140, N-hydroxy-2-({[4′-(2-hydroxyethoxy)biphenyl-4-yl]carbonyl}amino)-N′-[(1-methyl-1H-pyrazol-3-yl)methyl]propanediamide] reads less than 10 nM; that for `O=C1COc2ccc(CNC(=O)C(NC(=O)c3ccc(-c4ccc(OCCO)cc4)cc3)C(=O)NO)nc2N1` (centres unmarked) [Compound 152, N-hydroxy-2-({[4′-(2-hydroxyethoxy)biphenyl-4-yl]carbonyl}amino)-N′-[(3-oxo-3,4-dihydro-2H-pyrido[3,2-b][1,4]oxazin-6-yl)methyl]propanediamide], less than 10 nM; that for `Cn1ccnc1CNC(=O)C(NC(=O)c1ccc(-c2ccc(OCCO)cc2)cc1)C(=O)NO` (centres unmarked) [Compound 156, N-hydroxy-2-({[4′-(2-hydroxyethoxy)biphenyl-4-yl]carbonyl}amino)-N′-[(1-methyl-1H-imidazol-2-yl)methyl]propanediamide], less than 10 nM.
Take `CNC(=O)C(C(=O)NO)N(C)C(=O)c1ccc(-c2ccc(F)c(Cl)c2)cc1` (centres unmarked) [Compound 223, 2-{[(3′-chloro-4′-fluorobiphenyl-4-yl)carbonyl](methyl)amino}-N-hydroxy-N′-methylpropanediamide]: the IC50 is less than 10 nM.
Take `CNC(=O)C(C(=O)NO)N(C)C(=O)c1cnc(-c2ccc(OC)cc2)c(F)c1` (centres unmarked) [Compound 457, 2-[{[5-fluoro-6-(4-methoxyphenyl)pyridin-3-yl]carbonyl}(methyl)amino]-N-hydroxy-N′-methylpropanediamide]: the IC50 was in the range of 10 to 100 nM.
The same measure, in the same setting: as for `CNC(=O)C(C(=O)NO)N(C)C(=O)c1ccc(-c2ccc(OCCCN(C)C)cc2)cc1` (centres unmarked) [Compound 274, 2-[({4′-[3-(dimethylamino)propoxy]biphenyl-4-yl}carbonyl)(methyl)amino]-N-hydroxy-N′-methylpropanediamide], the figure is 10 to 100 nM; as for `CNC(=O)C(C(=O)NO)N(C)C(=O)c1ccc(-c2ccnc(C)c2)cc1` (centres unmarked) [Compound 451, N-hydroxy-N′-methyl-2-(methyl {[4-(2-methylpyridin-4-yl)phenyl]carbonyl}amino)propanediamide], 10 to 100 nM.
With `CNC(=O)C(C(=O)NO)N(C)C(=O)c1ccc(C#Cc2ccc(CN3CCCCC3)cc2)cc1` (centres unmarked) [Compound 234, N-hydroxy-N′-methyl-2-[methyl(4-{[4-(piperidin-1-ylmethyl)phenyl]ethynyl}benzoyl)amino]propanediamide], the IC50 is less than 10 nM.
For the compound `CNC(=O)C(C(=O)NO)N(C)C(=O)c1ccc(C#Cc2ccc(CN3Cc4ccccc4C3)cc2)cc1` (centres unmarked) [Compound 489, 2-{[(4-{[4-(1,3-dihydro-2H-isoindol-2-ylmethyl)phenyl]ethynyl}phenyl)carbonyl](methyl)amino}-N-hydroxy-N′-methylpropanediamide], the IC50 is less than 10 nM.
In the case of `CNC(=O)C(C(=O)NO)N(C)C(=O)c1ccc(-c2ccc(NC)cc2F)cc1` (centres unmarked) [Compound 226, 2-[{[2′-fluoro-4′-(methylamino)biphenyl-4-yl]carbonyl}(methyl)amino]-N-hydroxy-N′-methylpropanediamide], the IC50 is less than 10 nM.
Turning to `CNC(=O)C(C(=O)NO)N(C)C(=O)c1ccc(-c2ccoc2)cc1` (centres unmarked) [Compound 105, 2-{[4-(furan-3-yl)benzoyl](methyl)amino}-N-hydroxy-N′-methylpropanediamide], the IC50 was more than 100 nM.
On the same count and under the same terms, the result for `CNC(=O)C(C(=O)NO)N(C)C(=O)c1ccc(-c2ccc(C(=O)NC(C)(C)C)cc2)cc1` (centres unmarked) [Compound 248, N′-tert-butyl-N-[1-(hydroxyamino)-3-(methylamino)-1,3-dioxopropan-2-yl]-N-methylbiphenyl-4,4′-dicarboxamide] reads 10 to 100 nM; that for `O=C(NC(C(=O)NO)C(=O)NCC1CCC1)c1ccc(-c2ccc(OCCO)cc2)cc1` (centres unmarked) [Compound 128, N-(cyclobutylmethyl)-N′-hydroxy-2-({[4′-(2-hydroxyethoxy)biphenyl-4-yl]carbonyl}amino)propanediamide], less than 10 nM; that for `CNC(=O)C(NC(=O)c1ccc(-c2ccc(NCCO)cc2)cc1)C(=O)NO` (centres unmarked) [Compound 114, N-hydroxy-2-[({4′-[(2-hydroxyethyl)amino]biphenyl-4-yl}carbonyl)amino]-N′-methylpropanediamide], 10 to 100 nM.
The same measure, in the same setting: as for `CC(C)OCCNC(=O)C(NC(=O)c1ccc(-c2ccc(OCCO)cc2)cc1)C(=O)NO` (centres unmarked) [Compound 10, N-hydroxy-2-({[4′-(2-hydroxyethoxy)biphenyl-4-yl]carbonyl}amino)-N′-[2-(propan-2-yloxy)ethyl]propanediamide], the figure is 10 to 100 nM.
Consider `CNC(=O)C(C(=O)NO)N(C)C(=O)c1ccc(-c2ccc(C#CCN3CCOCC3)cc2)cc1` (centres unmarked) [Compound 390, N-hydroxy-N′-methyl-2-[methyl({4′-[3-(morpholin-4-yl)prop-1-yn-1-yl]biphenyl-4-yl}carbonyl)amino]propanediamide], for which the IC50 was less than 10 nM.
On the same count and under the same terms, the result for `CN(C)C(=O)CNC(=O)C(NC(=O)c1ccc(-c2ccc(OCCO)cc2)cc1)C(=O)NO` (centres unmarked) [Compound 144, N-[2-(dimethylamino)-2-oxoethyl]-N′-hydroxy-2-({[4′-(2-hydroxyethoxy)biphenyl-4-yl]carbonyl}amino)propanediamide] reads less than 10 nM; that for `CNC(=O)C(C(=O)NO)N(C)C(=O)c1ccc(-c2ccc(NC3CCC3)cc2)cc1` (centres unmarked) [Compound 268, 2-[{[4′-(cyclobutylamino)biphenyl-4-yl]carbonyl}(methyl)amino]-N-hydroxy-N′-methylpropanediamide], less than 10 nM.
Same read-out and setting: the result for `CNC(=O)C(C(=O)NO)N(C)C(=O)c1ccc(-c2ccc(N3CCN(C)CC3)cc2)cc1` (centres unmarked) [Compound 267, N-hydroxy-N′-methyl-2-(methyl {[4′-(4-methylpiperazin-1-yl)biphenyl-4-yl]carbonyl}amino)propanediamide] reads 10 to 100 nM; that for `CNC(=O)C(C(=O)NO)N(C)C(=O)c1ccc(-c2ccc(C(F)(F)F)cn2)cc1` (centres unmarked) [Compound 297, N-hydroxy-N′-methyl-2-[methyl({4-[5-(trifluoromethyl)pyridin-2-yl]phenyl}carbonyl)amino]propanediamide], more than 100 nM.
Consider `CNC(=O)C(C(=O)NO)N(C)C(=O)c1ccc(-c2ccc3c(ccn3CCCCO)c2)cc1` (centres unmarked) [Compound 26, N-hydroxy-2-[{4-[1-(4-hydroxybutyl)-1H-indol-5-yl]benzoyl}(methyl)amino]-N′-methylpropanediamide], for which the IC50 was less than 10 nM.
As for `CNC(=O)C(C(=O)NO)N(C)C(=O)c1ccc(-c2ccc(OCCOC)cc2)cc1` (centres unmarked) [Compound 191, N-hydroxy-2-[{[4′-(2-methoxyethoxy)biphenyl-4-yl]carbonyl}(methyl)amino]-N′-methylpropanediamide], the IC50 was less than 10 nM.
Same read-out and setting: as for `CNC(=O)C(C(=O)NO)N(C)C(=O)c1ccc(C#Cc2ccc(CNCc3cc(C)on3)cc2)cc1` (centres unmarked) [Compound 482, N-hydroxy-N′-methyl-2-{methyl[(4-{[4-({[(5-methyl-1,2-oxazol-3-yl)methyl]amino}methyl)phenyl]ethynyl}phenyl)carbonyl]amino}propanediamide], the figure is less than 10 nM.
